In patent US8183236B2, “Compounds with HIV-1 integrase inhibitory activity and use thereof as anti-HIV/AIDS therapeutics” (University of Southern California, priority 2007, dated 2012):

Tests used:
[1] = target: T1, HIV-1 integrase (wild-type IN) (Human immunodeficiency virus type 1 group M subtype B, UniProt P12497); experiment: HIV-1 integrase strand transfer assay (32P-labeled 21-mer, gel); type: biochemical
Text: (§1) The oligonucleotides 21 top, 5′-[…]-3′ (SEQ ID NO:1) and 21 bot, 5′-[…]-3′ (SEQ ID NO:2) were purchased from Norris Cancer Center Core Facility (University of Southern California) and purified by UV shadowing on polyacrylamide gel. To analyze the extent of 3′-processing and strand transfer using 5′-end labeled substrates, 21 top was 5′-end labeled using T4 polynucleotide kinase (Epicentre, Madison, Wis.) and γ [^32P]-ATP (Amersham Biosciences or ICN). The kinase was heat-inactivated and 21 bot was added in 1.5-molar excess. The mixture was heated at 95° C., allowed to cool slowly to room temperature, and run through a spin 25 mini-column (USA Scientific) to separate annealed double-stranded oligonucleotide from unincorporated material.
(§2) To determine the extent of 3′-processing and strand transfer, wild-type IN was preincubated at a final concentration of 200 nM with the inhibitor in reaction buffer (50 mM NaCl, 1 mM HEPES, pH 7.5, 50 μM EDTA, 50 μM dithiothreitol, 10% glycerol (w/v), 7.5 mM MnCl2, 0.1 mg/ml bovine serum albumin, 10 mM 2-mercaptoethanol, 10% dimethyl sulfoxide, and 25 mM MOPS, pH 7.2) at 30° C. for 30 min. Then, 20 nM of the 5′-end ^32P-labeled linear oligonucleotide substrate was added, and incubation was continued for an additional one hour. Reactions were quenched by the addition of an equal volume (16 μl) of loading dye (98% deionized formamide, 10 mM EDTA, 0.025% xylene cyanol and 0.025% bromophenol blue). An aliquot (5 μl) was electrophoresed on a denaturing 20% polyacrylamide gel (0.09 M tris-borate pH 8.3, 2 mM EDTA, 20% acrylamide, 8M urea).
(§3) Gels were dried, exposed in a PhosphorImager cassette, and analyzed using a Typhoon 8610 Variable Mode Imager (Amersham Biosciences) and quantitated using ImageQuant 5.2. Percent inhibition (% I) was calculated using the following equation: %I=100×[1−(D−C)/(N−C)]
(§4) where C, N, and D are the fractions of 21-mer substrate converted to 19-mer (3′-processing product) or strand transfer products for DNA alone, DNA plus IN, and IN plus drug, respectively. The IC50 values were determined by plotting the logarithm of drug concentration versus percent inhibition to obtain concentration that produced 50% inhibition. […]

[2] = target: T1, HIV-1 integrase (wild-type IN); experiment: HIV-1 integrase 3′-processing assay (32P-labeled 21-mer, gel); type: biochemical
Text: as §1, §2, §3, §4

[3] = unit inferred, read-out: IN inhibition activity Strand transfer
[4] = unit inferred, read-out: IN inhibition activity 3′-processing
[5] = wild-type IN 200 nM, 7.5 mM MnCl2, read-out: Inhibition of IN Catalytic Activities IC50 (μM) Strand Transfer
[6] = wild-type IN 200 nM, 7.5 mM MnCl2, read-out: Inhibition of IN Catalytic Activities IC50 (μM) 3′-processing
[7] = unit inferred, read-out: HIV-1 IN Inhibitory Activities Strand transfer
[8] = unit inferred, read-out: HIV-1 IN Inhibitory Activities 3′-processing

| Structure (SMILES) | IC50 [1, 3] | IC50 [2, 4] | IC50 [1, 5] | IC50 [2, 6] | IC50 [1, 7] | IC50 [2, 8] |
| --- | --- | --- | --- | --- | --- | --- |
| COC(=O)c1ccc(/C=N/Nc2nc3nonc3nc2Nc2ccccc2F)cc1 [AV15A19] | > 100 µM | > 100 µM | – | – | – | – |
| O=C(O)c1cccc(-c2ccc(/C=N/NC(=O)c3ccc(C(=O)N/N=C/c4ccc(-c5cccc(C(=O)O)c5)o4)cc3)o2)c1 [AV15A20] | 95 µM | > 100 µM | – | – | – | – |
| Cc1cccc(Nc2nc3nonc3nc2N/N=C/c2ccc(-c3cccc(C(=O)O)c3)o2)c1 [AV15A21] | 7 ± 2 µM | 10 ± 5 µM | – | – | – | – |
| O=C(O)c1cc(-c2ccc(/C=c3\sc4nc5ccccc5n4c3=O)o2)ccc1Cl [AV15A22] | 15 ± 4 µM | 23 ± 3 µM | – | – | – | – |
| N#Cc1c(/N=C/c2ccc(-c3cccc(C(=O)O)c3)o2)sc2c1CCCC2 [AV15A23] | 62 ± 7 µM | 89 ± 20 µM | – | – | – | – |
| O=C(O)c1cc(-c2ccc(/C=N/Nc3nc4nonc4nc3Nc3cccc(Br)c3)o2)ccc1O [AV15A24] | 3.4 ± 2 µM | 5 ± 3 µM | – | – | – | – |
| COc1cc(-c2nc3ccccn3c2/N=C/c2ccc(-c3ccc(Cl)c(C(=O)O)c3)o2)ccc1O [AV15A25] | > 100 µM | > 100 µM | – | – | – | – |
| CN(C)c1nc(NCc2ccccc2)nc(N/N=C/c2ccc(-c3cccc(C(=O)O)c3)o2)n1 [AV15A26] | 88 µM | > 100 µM | – | – | – | – |
| O=C(O)c1cccc(-c2ccc(/C=N/N(c3ccccc3)c3ccccc3)o2)c1 [AV15A27] | 26 ± 12 µM | 42 ± 24 µM | – | – | – | – |
| O=C(O)c1ccc(-c2ccc(/C=N/Nc3nc(Nc4ccccc4)nc(Nc4ccccc4)n3)o2)cc1O [AV15A28] | > 100 µM | > 100 µM | – | – | – | – |
| N#C/C(=C\c1ccc(-c2ccc(C(=O)O)c(O)c2)o1)c1nc2ccccc2[nH]1 [AV15A31] | 24 µM | 34 µM | – | – | – | – |
| Cc1cc2nc3s/c(=C\c4ccc(-c5cccc(C(=O)O)c5)o4)c(=O)n3c2cc1C [AV15A32] | > 100 µM | > 100 µM | – | – | – | – |
| CC(C)(C)c1ccc(OCC(=O)N/N=C/c2ccc(-c3cccc(C(=O)O)c3)o2)cc1 [AV15A35] | 86 µM | > 100 µM | – | – | – | – |
| CC(C)(C)c1ccc(C(=O)N/N=C/c2ccc(-c3cccc(C(=O)O)c3)o2)cc1 [AV15A36] | 56 ± 22 µM | > 100 µM | – | – | – | – |
| Cc1nnc(N/N=C/c2ccc(-c3ccccc3C(=O)O)o2)n1N [AV15A37] | > 100 µM | > 100 µM | – | – | – | – |
| COc1cc(C(=O)N/N=C/c2ccc(-c3cccc(C(=O)O)c3)o2)cc(OC)c1OC [AV15A38] | 49 ± 12 µM | > 100 µM | – | – | – | – |
| Clc1ccc(-c2ccc(/C=N/Nc3nc(Nc4ccccc4)nc(Nc4ccccc4)n3)o2)cc1 [AV15A39] | > 100 µM | > 100 µM | – | – | – | – |
| O=C(N/N=C/c1ccc(-c2ccc(Cl)c(C(=O)O)c2)o1)c1ccncc1 [AV15A40] | 46 ± 23 µM | 90 ± 18 µM | – | – | – | – |
| O=C(N/N=C/c1ccc(-c2ccc(Cl)c(C(=O)O)c2)o1)c1ccc(F)cc1 [AV15A41] | > 100 µM | > 100 µM | – | – | – | – |
| O=C(O)c1cccc(-c2ccc(/C=N/Nc3nc4ccccc4s3)o2)c1 [AV15A43] | 24 ± 11 µM | 63 ± 7 µM | – | – | – | – |
| CC1=C(C#N)c2nc(N)c(C#N)c(C)c2/C1=C/c1ccc(-c2ccc(C(=O)O)c(Cl)c2)o1 [AV15A44] | 68 ± 22 µM | > 100 µM | – | – | – | – |
| CC1=C(C#N)c2nc(N)c(C#N)c(C)c2/C1=C/c1ccc(-c2ccccc2C(=O)O)o1 [AV15A45] | 39 µM | 91 ± 16 µM | – | – | – | – |
| COC(=O)c1ccccc1-c1ccc(/C=C(\C#N)c2nc3ccccc3[nH]2)o1 [AV15A46] | > 100 µM | > 100 µM | – | – | – | – |

| Structure (SMILES) | IC50 [1, 3] | IC50 [2, 4] | IC50 [1, 5] | IC50 [2, 6] | IC50 [1, 7] | IC50 [2, 8] |
| --- | --- | --- | --- | --- | --- | --- |
| O=C(Cc1ccc(F)cc1)N/N=C/c1ccc(-c2ccc(Cl)c(C(=O)O)c2)o1 [AV15A47] | > 100 µM | > 100 µM | – | – | – | – |
| CC1=C(C#N)c2nc(N)c(C#N)c(C)c2/C1=C/c1ccc(-c2ccc(F)cc2)o1 [AV15A48] | > 100 µM | > 100 µM | – | – | – | – |
| CC1=C(C#N)c2nc(N)c(C#N)c(C)c2/C1=C/c1ccc(-c2ccccc2C(=O)O)o1 [AV15A54] | > 100 µM | > 100 µM | – | – | – | – |
| O=C(O)c1cccc(-c2ccc(/C=N/Nc3nc4nonc4nc3Nc3ccc(F)cc3)o2)c1 [AV30] | 4 ± 1 µM | 10 ± 3 µM | 4 µM | 10 µM | – | – |
| CC(C)(C)c1ccc(C2C(C(=O)c3ccc(F)cc3)=C(O)C(=O)N2c2nncs2)cc1 (stereo not drawn) [Compound M28A2] | 43 ± 8 µM | 64 ± 28 µM | – | – | – | – |
| Cc1ccc(C(=O)C2=C(O)C(=O)N(c3nccs3)C2c2ccc(Cl)cc2)cc1 (stereo not drawn) [Compound M28A6] | 39 ± 3 µM | 56 ± 10 µM | – | – | – | – |
| Cc1ccc(C(=O)C2=C(O)C(=O)N(c3nccs3)C2c2ccc(F)cc2)cc1 (stereo not drawn) [Compound M28A7] | 78 ± 10 µM | > 100 µM | – | – | – | – |
| O=C(C1=C(O)C(=O)N(c2nc3ccccc3s2)C1c1ccc2c(c1)OCO2)c1ccccc1 (stereo not drawn) [Compound M28A8] | 21 ± 10 µM | 57 ± 10 µM | – | – | – | – |
| CCOC(=O)c1sc(N2C(=O)C(O)=C(C(=O)c3ccccc3)C2c2ccc(F)cc2)nc1C (stereo not drawn) [Compound M28A10] | 21 ± 4 µM | 44 ± 4 µM | – | – | – | – |
| CCOc1ccc(C(=O)C2=C(O)C(=O)N(c3nccs3)C2c2ccc(OC)cc2)cc1 (stereo not drawn) [Compound M28A11] | 90 ± 17 µM | > 100 µM | – | – | – | – |
| CCOC(=O)c1sc(N2C(=O)C(O)=C(C(=O)c3ccc(C)cc3)C2c2ccc(F)cc2)nc1C (stereo not drawn) [Compound M28A18] | 33 ± 25 µM | > 100 µM | – | – | – | – |
| O=C(C1=C(O)C(=O)N(c2nc3ccccc3s2)C1c1cccnc1)c1ccc(Cl)cc1 (stereo not drawn) [Compound M28A21] | 90 ± 10 µM | > 100 µM | – | – | – | – |
| O=C(C1=C(O)C(=O)N(c2nc3ccccc3s2)C1c1ccccn1)c1ccc(Cl)cc1 (stereo not drawn) [Compound M28A22] | 83 ± 12 µM | > 100 µM | – | – | – | – |
| N=C1S/C(=C/c2ccc(-c3ccccc3C(=O)O)o2)C(=O)N1c1ccc2c(c1)OCO2 [Compound T36] | 6.5 ± 1 µM | 12 ± 6 µM | – | – | – | – |
| O=C(O)CCCCCN1C(=O)C(O)=C(C(=O)c2ccc(Cl)cc2)C1c1ccc2c(c1)OCO2 (stereo not drawn) [Compound T38] | 20 µM | 25 µM | – | – | 20 µM | 25 µM |
| O=C(Cc1ccccc1)Nc1cc(C(=O)O)c(NC(=O)Cc2ccccc2)cc1C(=O)O [Compound X7] | – | – | 7 µM | 9 µM | – | – |
| O=C(O)c1cc(NC(=O)c2cccc3ccccc23)c(C(=O)O)cc1NC(=O)c1cccc2ccccc12 [Compound X8] | – | – | 21 µM | 28 µM | – | – |
| COc1ccc(C=C2SC(=S)N(CCC(=O)Nc3cccc(C(=O)O)c3)C2=O)cc1 [Compound X26] | – | – | > 100 µM | > 100 µM | – | – |
| CC(=O)C1=C(O)C(=O)N(CC(=O)O)C1c1ccc(Br)cc1 (stereo not drawn) [Compound X36] | – | – | – | – | > 100 µM | > 100 µM |
| Cc1ccc(C2C(C(=O)c3ccc(Cl)cc3)=C(O)C(=O)N2CC(=O)O)cc1 (stereo not drawn) [Compound X81] | 69 ± 36 µM | 84 ± 23 µM | – | – | 69 µM | 84 µM |
| CCOC(=O)N1CCN(C(=O)CCN2C(=O)/C(=C/c3ccc(OC)c(OC)c3)SC2=S)CC1 [Compound X90] | – | – | > 100 µM | > 100 µM | – | – |
| CCc1ccc(C=C2SC(=S)N(CC(=O)Nc3cccc(C(=O)O)c3)C2=O)cc1 [Compound X91] | – | – | > 100 µM | > 100 µM | – | – |
